# In ChEMBL document CHEMBL3352475, “Novel dammarane saponins from Gynostemma pentaphyllum and their cytotoxic activities against HepG2 cells” (Bioorg Med Chem Lett, 2014):
# System: HepG2
# Experiment: Cytotoxicity against human HepG2 cells after 24 hrs by CCK-8 assay
# Format: functional, cell-based
# Details: HepG2, 24 h
row,SMILES,IC50 [µg/mL]
1,CC(=O)OC[C@H]1O[C@@H](O[C@H]2[C@H](O[C@H]3[C@H](O)C[C@]4(C)[C@H]5C[C@@H](O)[C@@H]6[C@@H](/C(C)=C\CC=C(C)C)CC[C@@]6(C)[C@]5(C)CC[C@H]4C3(C)C)O[C@H](CO)[C@@H](O)[C@@H]2O)[C@H](O)[C@@H](O)[C@@H]1O,40
2,C=C(CCC=C(C)C)[C@H]1CC[C@]2(C)[C@@H]1[C@H](O)C[C@@H]1[C@@]3(C)C[C@@H](O)[C@H](O[C@@H]4O[C@H](CO)[C@@H](O)[C@H](O)[C@H]4O[C@@H]4O[C@H](COC(C)=O)[C@@H](O)[C@H](O)[C@H]4O)C(C)(C)[C@@H]3CC[C@]12C,38
3,CC(C)=CCC[C@](C)(O)[C@H]1CC[C@]2(C)[C@@H]1[C@H](O)C[C@@H]1[C@@]3(C)CC[C@H](O[C@@H]4O[C@H](CO)[C@@H](O)[C@H](O)[C@H]4O[C@@H]4O[C@H](CO)[C@@H](O)[C@H](O)[C@H]4O)C(C)(C)[C@@H]3CC[C@]12C,54
